Results taken from ChEMBL document CHEMBL1149192, “Mechanism of inactivation of beta-lactamases by novel 6-methylidene penems elucidated using electrospray ionization mass spectrometry” (J Med Chem, 2004).

Target: Beta-lactamase (Escherichia coli K-12, UniProt P00811)
Sequence (P00811 whole entry): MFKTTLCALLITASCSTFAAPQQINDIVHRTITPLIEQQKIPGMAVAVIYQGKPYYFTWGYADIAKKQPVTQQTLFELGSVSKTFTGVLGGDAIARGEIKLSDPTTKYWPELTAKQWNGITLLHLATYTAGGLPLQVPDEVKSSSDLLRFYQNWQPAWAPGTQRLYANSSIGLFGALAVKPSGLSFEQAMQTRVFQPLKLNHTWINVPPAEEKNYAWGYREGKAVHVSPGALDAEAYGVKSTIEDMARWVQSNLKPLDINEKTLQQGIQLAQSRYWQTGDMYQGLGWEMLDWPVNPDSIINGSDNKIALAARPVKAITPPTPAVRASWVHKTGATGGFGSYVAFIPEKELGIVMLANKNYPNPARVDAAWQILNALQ
Description: In vitro inhibitory activity against Class C (Amp-C) beta-Lactamases

SMILES	IC50
O=C(O)C1=CS[C@@H]2/C(=C\c3cn4c5c(sc4n3)CCC5)C(=O)N12	2 nM
O=C(O)C1=CS[C@@H]2/C(=C\c3cnc4n3CCNC4)C(=O)N12	6 nM
O=C(O)C1=CS[C@@H]2/C(=C\c3cnc4n3CCOC4)C(=O)N12	5 nM
O=C(O)C1=CS[C@@H]2/C(=C\c3cc4n(n3)CCC4)C(=O)N12	2 nM

Target: Beta-lactamase TEM (Escherichia coli, UniProt P62593)
Assay: In vitro inhibitory activity against Class A (TEM-1) beta-Lactamases

Chain of Beta-lactamase TEM (P62593 whole entry): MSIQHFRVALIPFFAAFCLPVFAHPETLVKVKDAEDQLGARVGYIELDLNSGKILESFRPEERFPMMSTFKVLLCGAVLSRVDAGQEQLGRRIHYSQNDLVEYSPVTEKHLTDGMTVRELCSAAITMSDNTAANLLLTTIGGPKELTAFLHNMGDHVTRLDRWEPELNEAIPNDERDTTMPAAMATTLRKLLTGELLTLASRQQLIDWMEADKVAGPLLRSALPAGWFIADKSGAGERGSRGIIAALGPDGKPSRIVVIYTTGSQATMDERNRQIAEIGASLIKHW

SMILES	IC50
O=C(O)C1=CS[C@@H]2/C(=C\c3cn4c5c(sc4n3)CCC5)C(=O)N12	1 nM
O=C(O)C1=CS[C@@H]2/C(=C\c3cnc4n3CCNC4)C(=O)N12	5 nM
O=C(O)C1=CS[C@@H]2/C(=C\c3cnc4n3CCOC4)C(=O)N12	0.4 nM
O=C(O)C1=CS[C@@H]2/C(=C\c3cc4n(n3)CCC4)C(=O)N12	1 nM

Target: Metallo-beta-lactamase type 2 (Bacteroides fragilis, UniProt P25910)
Assay: In vitro inhibitory activity against Class B (CCRA) beta-Lactamases

Chain of Metallo-beta-lactamase type 2 (P25910 whole entry): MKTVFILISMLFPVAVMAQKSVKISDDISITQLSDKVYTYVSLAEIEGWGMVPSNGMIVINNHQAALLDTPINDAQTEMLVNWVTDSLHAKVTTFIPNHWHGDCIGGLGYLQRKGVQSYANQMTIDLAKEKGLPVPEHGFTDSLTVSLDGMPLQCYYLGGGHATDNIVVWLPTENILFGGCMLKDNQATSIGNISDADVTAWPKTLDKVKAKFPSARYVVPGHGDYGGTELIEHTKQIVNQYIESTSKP

SMILES	IC50
O=C(O)C1=CS[C@@H]2/C(=C\c3cnc4n3CCNC4)C(=O)N12	320 nM
O=C(O)C1=CS[C@@H]2/C(=C\c3cnc4n3CCOC4)C(=O)N12	66 nM

Target: IMI-1 (Enterobacter cloacae, UniProt Q46991)
Assay: In vitro inhibitory activity against Class A (Imi-1) beta-Lactamases

Chain of IMI-1 (Q46991 whole entry): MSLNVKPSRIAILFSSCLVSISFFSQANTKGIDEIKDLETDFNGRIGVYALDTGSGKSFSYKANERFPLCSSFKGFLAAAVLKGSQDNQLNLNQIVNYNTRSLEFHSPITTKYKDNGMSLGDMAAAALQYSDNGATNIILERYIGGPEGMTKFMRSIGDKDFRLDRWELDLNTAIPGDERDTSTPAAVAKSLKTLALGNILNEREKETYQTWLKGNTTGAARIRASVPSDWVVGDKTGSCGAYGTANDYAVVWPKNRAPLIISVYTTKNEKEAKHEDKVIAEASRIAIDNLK

SMILES	IC50
O=C(O)C1=CS[C@@H]2/C(=C\c3cnc4n3CCNC4)C(=O)N12	28 nM
O=C(O)C1=CS[C@@H]2/C(=C\c3cnc4n3CCOC4)C(=O)N12	8 nM
